Measurements published in patent EP0097446B1, “Penicillin derivatives and process for preparation of the same” (TAIHO PHARMACEUTICAL COMPANY LIMITED, priority 1982, dated 1984).
≈ marks a conversion by molar mass, not a printed value. Like-named read-outs stand apart in the source and are kept apart here. Blank lines part the entries; values can stand above or below the molecule they belong to.

Experiments:
E.coli TH—397 = assay: MIC by micro-broth dilution method; type: cell-based; details: Escherichia coli, 20 h, Table 2, read-out: MIC, Ampicillin (singly used)
Experimental: (§1) In the method, the bacteria cultivated in Mueller Hinton Broth (product of DIFCO) and diluted to 10' CFU/ml were inoculated into the same medium containing ampicillin and the present compound in a specific concentration, and incubated at 37°C for 20 hours. […] The bacteria as used in the test were those capable of producing β-lactamase, among which the bacteria marked ^* in the table are those collected from the living body of human hosts and the others are a stock culture.

P.Mirabilis 121 = assay: MIC by micro-broth dilution method; type: cell-based; details: Proteus mirabilis, 20 h, Table 2, read-out: MIC, Ampicillin (singly used)
Experimental: as §1, with “The MIC of ampicillin as combined with the present compound (10 µg/ml) was measured against the same bacteria. In” for “In”

E.coli TH—13 = assay: MIC by micro-broth dilution method; type: cell-based; details: Escherichia coli, 20 h
Experimental: as §1, with “The MIC of ampicillin as combined with the present compound (10 µg/ml) was measured against the same bacteria. In” for “In”
(§2) The same test as above was carried out to determine the antibacterial activity of the sodium 2β-(4,5-dimethoxycarbonyl-1,2,3-triazole-1-yl)methyl-2a-methylpenam-3a-carboxylate-1,1-dioxide (Compound 26) obtained in Example 24.

E.coli TH—34 = assay: MIC by micro-broth dilution method; type: cell-based; details: Escherichia coli, 20 h, Table 3, inoculate 10^7 CFU/ml, singly used
Experimental: as §1, with “The MIC of ampicillin as combined with the present compound (10 µg/ml) was measured against the same bacteria. In” for “In”
as §2

P.mirabilis 121—1 = assay: MIC by micro-broth dilution method; type: cell-based; details: Proteus mirabilis, 20 h, Table 3, inoculate 10^7 CFU/ml, singly used
Experimental: as §1, with “The MIC of ampicillin as combined with the present compound (10 µg/ml) was measured against the same bacteria. In” for “In”
as §2

P.vulgaris IID OX—19 = assay: MIC by micro-broth dilution method; type: cell-based; details: Proteus vulgaris, 20 h
Experimental: as §1, with “The MIC of ampicillin as combined with the present compound (10 µg/ml) was measured against the same bacteria. In” for “In”
as §2

S.aureus ATCC 90124 = assay: MIC by micro-broth dilution method; type: cell-based; details: Staphylococcus aureus, ATCC90124, 20 h
Experimental: as §1, with “The MIC of ampicillin as combined with the present compound (10 µg/ml) was measured against the same bacteria. In” for “In”
as §2

S.aureus S—54 = assay: MIC by micro-broth dilution method; type: cell-based; details: Staphylococcus aureus
Experimental: as §1, with “The MIC of ampicillin as combined with the present compound (10 µg/ml) was measured against the same bacteria. In” for “In”
as §2

S.marcescens TH—05 = assay: MIC by micro-broth dilution method; type: cell-based; details: Serratia marcescens, 20 h
Experimental: as §1, with “The MIC of ampicillin as combined with the present compound (10 µg/ml) was measured against the same bacteria. In” for “In”
as §2

[1] = system: 30 strains of coliform bacilli collected from the living body of humans; assay: MIC50 and MIC70 against 30 clinical strains, antibiotics alone and combined with present compound; type: cell-based; details: for MIC50: Homo sapiens, 20 h, concentration inhibiting growth of 50% of 30 strains; for MIC70, Present compound as combined with ampicillin: MIC of ampicillin with present compound (10 pg/ml [sic]); for MIC70, Present compound as combined with ampicillin / MIC70, Present compound as combined with cephalexin / MIC70, Present compound as combined with mecillinam / MIC70, Present compound as combined with piperacillin: 70% of 30 strains; for MIC70, Present compound as combined with cephalexin: MIC of cephalexin with present compound (10 pg/ml [sic]); for MIC70, Present compound as combined with mecillinam: MIC of mecillinam with present compound (10 pg/ml [sic]); for MIC70, Present compound as combined with piperacillin: MIC of piperacillin with present compound (10 pg/ml [sic])
Experimental: as §1, with “The MIC of ampicillin as combined with the present compound (10 µg/ml) was measured against the same bacteria. In” for “In”
The compounds of the present invention, ampicillin, mecillinam, piperacillin and cephalexin, each singly used, were also tested for minimal inhibitory concentration against 30 strains of coliform bacilli collected from the living body of humans. The MIC of each antibiotic as combined with the present compound (10 pg/ml) was likewise measured. Table 4 to 7 indicate the results in which MlC50 and MlC70 indicate the minimal inhibitory concentration for inhibiting the growth of 50% and 70% respectively of the strains. The MICs of the present compounds singly used were all more than 25 µg/ml.

[2] = target: penicillinase (β-lactamase) from Bacillus SP; assay: β-lactamase inhibitory activity by microiodometry, penicillin G as substrate; type: biochemical; details: read-out: 50% Inhibitory Concentration
Experimental: The inhibitory activity against penicillinase (β-lactamase) from Bacillus SP was measured by . microiodometry [Tanpakushitsu Kakusan Koso (Protein Nucleic Acid Enzyme), vol. 23, No. 5, pp 391-400 (1978)] using a penicillin G as a substrate.

[3] = target: penicillinase (β-lactamase) from Bacillus SP; assay: β-lactamase inhibitory activity by pH stat method, penicillin G as substrate; type: biochemical; details: read-out: 50% β-lactamase inhibitory concentration
[4] = Table 2, read-out: MIC, Ampicillin (singly used)
[5] = Table 3, inoculate 10^7 CFU/ml, singly used, read-out: MIC, Ampicillin
[6] = concentration inhibiting growth of 70% of 30 strains
[7] = Table 3, inoculate 10^7 CFU/ml, singly used, read-out: MIC, Comp. 26

- MIC (E.coli TH—397): 400 µg/mL (≈ 1140 µM)
- MIC (P.Mirabilis 121): > 400 µg/mL
- MIC (E.coli TH—13; [4]): 400 µg/mL (≈ 1140 µM)
- MIC (E.coli TH—13; [5]): 400 µg/mL (≈ 1140 µM)
- MIC (E.coli TH—34; read-out: MIC, Ampicillin): 800 µg/mL (≈ 2290 µM)
- MIC (P.mirabilis 121—1; read-out: MIC, Ampicillin): 800 µg/mL (≈ 2290 µM)
- MIC (P.vulgaris IID OX—19; [4]): 100 µg/mL (≈ 286 µM)
- MIC (P.vulgaris IID OX—19; [5]): 25 µg/mL (≈ 71.5 µM)
- MIC (S.aureus ATCC 90124; [4]): 25 µg/mL (≈ 71.5 µM)
- MIC (S.aureus ATCC 90124; [5]): 50 µg/mL (≈ 143 µM)
- MIC (S.aureus S—54; 20 h, Table 3, inoculate 10^7 CFU/ml, singly used, read-out: MIC, Ampicillin): 100 µg/mL (≈ 286 µM)
- MIC (S.aureus S—54; Table 2, 37°C, 20 hours, read-out: MIC, Ampicillin (singly used)): 25 µg/mL (≈ 71.5 µM)
- MIC (S.marcescens TH—05; [4]): > 400 µg/mL
- MIC (S.marcescens TH—05; [5]): 800 µg/mL (≈ 2290 µM)
- MIC50 ([1]; read-out: MIC50, Ampicillin singly used): 400 µg/mL
- MIC70, Ampicillin singly used [1, 6]: >400 µg/mL
SMILES: CC1(C)S[C@@H]2[C@H](NC(=O)[C@H](N)c3ccccc3)C(=O)N2[C@H]1C(=O)O [Ampicillin, ampicillin]

- MIC50 ([1]; read-out: MIC50, Cephalexin singly used): 25 µg/mL
- MIC70, Cephalexin singly used [1, 6]: 100 µg/mL
SMILES: CC1=C(C(=O)O)N2C(=O)[C@@H](NC(=O)[C@H](N)c3ccccc3)[C@H]2SC1 [Cephalexin, cephalexin, reference compound]

SMILES: CCOC(=O)c1cn(C[C@@]2(C)[C@H](C(=O)O)N3C(=O)C[C@H]3S2(=O)=O)nn1 [Compound 7, sodium 2β-(4-ethoxycarbonyl-1,2,3-triazole-1-yl)methyl-2α-methylpenam-3α-caboxylate-1,1-dioxide]
- IC50 [2]: 54 nM
- MIC70, Present compound as combined with ampicillin [1]: 50 µg/mL
- MIC70, Present compound as combined with cephalexin [1]: 100 µg/mL
- MIC70, Present compound as combined with mecillinam [1]: 0.39 µg/mL
- MIC70, Present compound as combined with piperacillin [1]: 6.25 µg/mL

SMILES: CCOC(=O)c1cnnn1C[C@@]1(C)[C@H](C(=O)O)N2C(=O)C[C@H]2S1(=O)=O [Compound 11, sodium 2β-(5-ethoxycarbonyl-1,2,3-triazole-1-yl)methyl-2α-methylpenam-3α-carboxylate-1,1-dioxide]
- IC50 [2]: 340 nM
- MIC70, Present compound as combined with ampicillin [1]: 100 µg/mL
- MIC70, Present compound as combined with cephalexin [1]: 100 µg/mL
- MIC70, Present compound as combined with mecillinam [1]: 0.39 µg/mL
- MIC70, Present compound as combined with piperacillin [1]: 25 µg/mL

SMILES: COC(=O)c1cn(C[C@@]2(C)[C@H](C(=O)O)N3C(=O)C[C@H]3S2(=O)=O)nn1 [Compound 12, sodium 2β-(4-methoxycarbonyl-1,2,3-triazole-1-yl)methyl-2a-methylpenam-3α-carboxylate-1,1-dioxide]
- IC50 [2]: 49 nM

SMILES: COC(=O)c1cnnn1C[C@@]1(C)[C@H](C(=O)O)N2C(=O)C[C@H]2S1(=O)=O [Compound 13, sodium 2β-(5-methoxycarbonyl-1,2,3-triazote-1-yl)methyl-2α-methylpenam-3α-carboxylate-1,1-dioxide]
- IC50 [2]: 300 nM

SMILES: C[C@]1(Cn2cc(C(=O)O)nn2)[C@H](C(=O)O)N2C(=O)C[C@H]2S1(=O)=O [Compound 16, dipotassium 2β-(4-carboxy-1,2,3-triazole-1-yl)methyl-2α-methylpenam-3α-carboxylate-1,1-dioxide]
- IC50 [2]: 600 nM
- MIC70, Present compound as combined with ampicillin [1]: 6.25 µg/mL
- MIC70, Present compound as combined with cephalexin [1]: 25 µg/mL
- MIC70, Present compound as combined with mecillinam [1]: 0.1 µg/mL
- MIC70, Present compound as combined with piperacillin [1]: 3.13 µg/mL

SMILES: C[C@]1(Cn2nncc2C(=O)O)[C@H](C(=O)O)N2C(=O)C[C@H]2S1(=O)=O [Compound 17, dipotassium 2β-(5-carboxy-1,2,3-triazole-1-yl)methyl-2α-methylpenam-3α-carboxylate-1,1-dioxide]
- IC50 [2]: 1700 nM
- MIC70, Present compound as combined with ampicillin [1]: 100 µg/mL
- MIC70, Present compound as combined with cephalexin [1]: 12.5 µg/mL
- MIC70, Present compound as combined with mecillinam [1]: 0.39 µg/mL
- MIC70, Present compound as combined with piperacillin [1]: 50 µg/mL

SMILES: C[C@]1(Cn2ccnn2)[C@H](C(=O)O)N2C(=O)C[C@H]2S1(=O)=O [Compound 22, sodium 2α-methyl-2β-(1,2,3-triazole-1-yl)-methylpenam-3α-carboxylate-1,1-dioxide]
- IC50 [2]: 690 nM
- MIC70, Present compound as combined with ampicillin [1]: 6.25 µg/mL
- MIC70, Present compound as combined with cephalexin [1]: 50 µg/mL
- MIC70, Present compound as combined with mecillinam [1]: 0.2 µg/mL
- MIC70, Present compound as combined with piperacillin [1]: 1.56 µg/mL

SMILES: C[C@]1(Cn2cc([Si](C)(C)C)nn2)[C@H](C(=O)O)N2C(=O)C[C@H]2S1(=O)=O [Compound 24, sodium 2α-methyl-2β-(4-trimethylsilyl-1,2,3-triazole-1-yl)-methylpenam-3α-carboxylate-1,1-dioxide]
- IC50 [2]: 510 nM

SMILES: COC(=O)c1nnn(C[C@@]2(C)[C@H](C(=O)O)N3C(=O)C[C@H]3S2(=O)=O)c1C(=O)OC [Compound 26, sodium 2β-(4,5-dimethoxycarbonyl-1,2,3-triazole-1-yl)-methyl-2α-methylpenam-3α-carboxylate-1,1-dioxide]
- IC50 [3]: 300 nM
- MIC (E.coli TH—13; [7]): > 50 µg/mL
- MIC (E.coli TH—34; read-out: MIC, Comp. 26): > 50 µg/mL
- MIC (P.mirabilis 121—1; read-out: MIC, Comp. 26): > 50 µg/mL
- MIC (P.vulgaris IID OX—19; [7]): 25 µg/mL
- MIC (S.aureus ATCC 90124; [7]): > 50 µg/mL
- MIC (S.aureus S—54; 20 h, Table 3, inoculate 10^7 CFU/ml, singly used, read-out: MIC, Comp. 26): > 50 µg/mL
- MIC (S.marcescens TH—05; [7]): > 50 µg/mL

SMILES: C[C@]1(Cn2nnc(C(=O)O)c2C(=O)O)[C@H](C(=O)O)N2C(=O)C[C@H]2S1(=O)=O [Compound 39, tri-sodium 2β-(4,5-dicarboxy-1,2,3-triazole-1-yl)methyl-2α-methylpenam-3α-carboxylate-1,1-dioxide]
- IC50 [2]: 2300 nM

- MIC50 ([1]; read-out: MIC50, Mecillinam singly used): 3.13 µg/mL
- MIC70, Mecillinam singly used [1, 6]: 12.5 µg/mL
SMILES: CC1(C)S[C@@H]2[C@H](/N=C/N3CCCCCC3)C(=O)N2[C@H]1C(=O)O [Mecillinam, mecillinam, reference compound]

- MIC50 ([1]; read-out: MIC50, Piperacillin singly used): 50 µg/mL
- MIC70, Piperacillin singly used [1, 6]: 200 µg/mL
SMILES: CCN1CCN(C(=O)N[C@@H](C(=O)N[C@@H]2C(=O)N3[C@@H]2SC(C)(C)[C@@H]3C(=O)O)c2ccccc2)C(=O)C1=O [Piperacillin, piperacillin, reference compound]
